Literature values in patent US20090081206A1, “METHOD AND PHARMACEUTICAL COMPOSITION FOR INHIBITING PREMATURE RAPTURE OF FETAL MEMBRANES, RIPENING OF UTERINE CERVIX AND PRETERM LABOR IN MAMMALS” (priority 1997, published 2009).
Read-outs that look alike come from different tables or passages of the source.

Tests used:
[1] = patches, only 13 cases studied
[2] = severe pregnancy-induced hypertension
[3] = women with cervical Bishop score of 4-5
[4] = intravaginal tablets
[5] = for need for additional oxytocin: compared with 100% in placebo
[6] = 3-mg intravaginal pessaries, mixed group of multigravidae and primigravidae
[7] = not given; remark: listed apart in the source
[8] = in vivo
[9] = after single 3-mg suppository alone

Structure (SMILES): O=[N+]([O-])OCC(CO[N+](=O)[O-])O[N+](=O)[O-] [GTN, glycerol trinitrate]
- suppression of preterm labor, safety and tolerability [1]: safe, well-tolerated and non-invasive method of suppressing preterm labor
- reduction of capillary wedge pressure [2]: 30%
- reduction of mean arterial blood pressure [2]: 25%

Structure (SMILES): CCCCC[C@H](O)/C=C/[C@H]1[C@H](O)CC(=O)[C@@H]1C/C=C\CCCC(=O)O [PGE2, prostaglandin E2]
- mean time to labor [9]: 1.5 h
- patients in whom labor was achieved [9]: 98%
- additional oxytocin augmentation needed (multifarious women): 14%
- additional oxytocin augmentation needed (nulliparous women): 71%
- vaginal birth within 24 hours [3]: 17 of 19
- patients induced successfully (achieving active labor) ([4]; multigravidae, 1-mg group): 39.1%
- patients induced successfully (achieving active labor) ([4]; multigravidae, 5-mg group): 62.2%
- patients induced successfully (achieving active labor) ([4]; primigravidae, 1-mg group): 29.6%
- patients induced successfully (achieving active labor) ([4]; primigravidae, 5-mg group): 62.9%
- established labor and delivered their infants without oxytocin augmentation ([5]; multigravidae, 2.5-mg vaginal suppositories): 81%
- need for additional oxytocin ([5]; multigravidae): 19.1%
- established labor and delivered their infants without oxytocin augmentation ([5]; primigravidae, 5-mg vaginal suppositories): 63%
- need for additional oxytocin ([5]; primigravidae): 37.5%
- treatment-to-delivery interval ([5]; shorter compared with controls): 7.6 to 11.6 h
- success rate for induced labor [6]: 55%

Structure (SMILES): CC[C@H](C)[C@@H]1NC(=O)[C@H](Cc2ccc(O)cc2)NC(=O)[C@@H](N)CSSC[C@@H](C(=O)N2CCC[C@H]2C(=O)N[C@@H](CC(C)C)C(=O)NCC(N)=O)NC(=O)[C@H](CC(N)=O)NC(=O)[C@H](CCC(N)=O)NC1=O [oxytocin]
- antidiuretic and pressor activity relative to vasopressin [7]: 1%
- vaginal birth within 24 hours [3]: 8 of 19
- plasma half-life [8]: 5 to 17 min
